Laboratory results: US20240210412A1, “SULFONYL-TRIAZOLE COMPOUNDS USEFUL AS LIGANDS AND INHIBITORS OF PROSTAGLANDIN REDUCTASE 2” (University of Virginia Patent Foundation, priority 2021, published 2024)

Key:
Test in all cases: SILAC LC-MS ABPP
Type in all cases: cell-based
Details in all cases: 25 μM 2 h, live DM93 cells
[1] = target: T1, P25685 (Homo sapiens, UniProt P25685)
T1 construct: endogenous in cells; host or cells: DM93 (SILAC)
Outline: (§1)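 Competitive activity-based profiling in isotopically labelled DM93 melanoma cells. Heavy cells received 25 μM sulfonyl-triazole ligand and light cells vehicle, each for 2 h at 37 °C, before 2 h with 100 μM HHS-475. Labelled soluble proteins were tagged via CuAAC, combined, digested and enriched before LC-MS/MS.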

[2] = target: T2, Q09028 (Homo sapiens, UniProt Q09028)
T2 construct: performing SuTEx compound screening directly in cells; endogenous in cells; host or cells: DM93 cells (SILAC)
Outline: as §1

[3] = target: T3, Q14247 (Homo sapiens, UniProt Q14247)
T3 construct: performing SuTEx compound screening directly in cells; endogenous in cells; host or cells: DM93 cells (SILAC), soluble fraction
T3 sequence (Q14247 whole entry): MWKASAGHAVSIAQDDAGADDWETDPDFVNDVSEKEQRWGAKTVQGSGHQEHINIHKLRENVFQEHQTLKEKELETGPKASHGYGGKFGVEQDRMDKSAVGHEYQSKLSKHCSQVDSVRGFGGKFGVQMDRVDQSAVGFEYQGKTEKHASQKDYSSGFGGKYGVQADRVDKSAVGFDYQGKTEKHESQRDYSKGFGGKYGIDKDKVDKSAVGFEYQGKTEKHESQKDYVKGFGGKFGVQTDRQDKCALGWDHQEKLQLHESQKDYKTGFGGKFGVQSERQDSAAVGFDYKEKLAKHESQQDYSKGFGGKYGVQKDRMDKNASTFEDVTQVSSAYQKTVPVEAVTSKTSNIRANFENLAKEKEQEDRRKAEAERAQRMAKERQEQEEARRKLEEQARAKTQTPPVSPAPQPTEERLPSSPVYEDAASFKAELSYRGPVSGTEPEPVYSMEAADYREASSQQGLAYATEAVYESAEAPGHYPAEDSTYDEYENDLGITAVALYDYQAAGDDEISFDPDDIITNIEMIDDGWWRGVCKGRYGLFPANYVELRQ
Outline: as §1

[4] = target: T4, Q14694 (Homo sapiens, UniProt Q14694)
T4 construct: performing SuTEx compound screening directly in cells; endogenous in cells; host or cells: DM93 cells (SILAC), soluble fraction
Outline: as §1

[5] = target: T5, P40939 (Homo sapiens, UniProt P40939)
T5 construct: endogenous in cells; host or cells: DM93 cells (SILAC)
Outline: as §1

[6] = target: T6, Q92734 (Homo sapiens, UniProt Q92734)
T6 construct: endogenous in cells; host or cells: DM93 cells (SILAC), live-cell treatment
T6 sequence (Q92734 whole entry): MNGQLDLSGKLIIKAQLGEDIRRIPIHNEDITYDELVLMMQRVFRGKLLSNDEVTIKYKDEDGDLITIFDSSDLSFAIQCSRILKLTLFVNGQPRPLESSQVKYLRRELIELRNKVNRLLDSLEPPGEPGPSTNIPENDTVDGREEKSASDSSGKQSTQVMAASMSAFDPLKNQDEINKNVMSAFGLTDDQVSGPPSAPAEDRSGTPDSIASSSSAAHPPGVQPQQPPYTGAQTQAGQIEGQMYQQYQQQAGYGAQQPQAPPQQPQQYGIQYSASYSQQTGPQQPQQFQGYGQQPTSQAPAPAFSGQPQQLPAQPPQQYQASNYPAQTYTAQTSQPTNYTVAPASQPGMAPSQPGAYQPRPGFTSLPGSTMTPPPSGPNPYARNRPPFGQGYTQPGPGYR
Outline: as §1

[7] = target: T7, Q9P2B4 (Homo sapiens, UniProt Q9P2B4)
T7 construct: endogenous in cells; host or cells: DM93 cells (SILAC)
T7 sequence (Q9P2B4 whole entry): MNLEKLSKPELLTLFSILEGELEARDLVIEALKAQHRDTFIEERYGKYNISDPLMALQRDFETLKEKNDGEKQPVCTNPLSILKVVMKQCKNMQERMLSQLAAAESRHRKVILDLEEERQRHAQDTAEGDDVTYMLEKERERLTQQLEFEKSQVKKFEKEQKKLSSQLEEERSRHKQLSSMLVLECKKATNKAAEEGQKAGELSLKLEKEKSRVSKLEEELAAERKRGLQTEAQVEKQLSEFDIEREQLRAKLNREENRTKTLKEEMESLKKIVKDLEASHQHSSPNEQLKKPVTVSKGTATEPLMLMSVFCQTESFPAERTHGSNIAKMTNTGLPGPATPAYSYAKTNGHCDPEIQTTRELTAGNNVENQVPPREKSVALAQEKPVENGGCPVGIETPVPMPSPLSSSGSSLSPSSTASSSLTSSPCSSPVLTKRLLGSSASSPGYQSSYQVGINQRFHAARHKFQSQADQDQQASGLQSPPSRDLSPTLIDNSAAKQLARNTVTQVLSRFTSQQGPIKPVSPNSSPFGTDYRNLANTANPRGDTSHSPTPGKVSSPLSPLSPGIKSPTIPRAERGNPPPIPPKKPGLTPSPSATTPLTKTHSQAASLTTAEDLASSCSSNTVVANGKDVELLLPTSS
Outline: as §1

[8] = target: T8, P13010 (Homo sapiens, UniProt P13010)
T8 construct: endogenous in cells; host or cells: DM93 cells (SILAC)
T8 sequence (P13010 2-732 limits assumed): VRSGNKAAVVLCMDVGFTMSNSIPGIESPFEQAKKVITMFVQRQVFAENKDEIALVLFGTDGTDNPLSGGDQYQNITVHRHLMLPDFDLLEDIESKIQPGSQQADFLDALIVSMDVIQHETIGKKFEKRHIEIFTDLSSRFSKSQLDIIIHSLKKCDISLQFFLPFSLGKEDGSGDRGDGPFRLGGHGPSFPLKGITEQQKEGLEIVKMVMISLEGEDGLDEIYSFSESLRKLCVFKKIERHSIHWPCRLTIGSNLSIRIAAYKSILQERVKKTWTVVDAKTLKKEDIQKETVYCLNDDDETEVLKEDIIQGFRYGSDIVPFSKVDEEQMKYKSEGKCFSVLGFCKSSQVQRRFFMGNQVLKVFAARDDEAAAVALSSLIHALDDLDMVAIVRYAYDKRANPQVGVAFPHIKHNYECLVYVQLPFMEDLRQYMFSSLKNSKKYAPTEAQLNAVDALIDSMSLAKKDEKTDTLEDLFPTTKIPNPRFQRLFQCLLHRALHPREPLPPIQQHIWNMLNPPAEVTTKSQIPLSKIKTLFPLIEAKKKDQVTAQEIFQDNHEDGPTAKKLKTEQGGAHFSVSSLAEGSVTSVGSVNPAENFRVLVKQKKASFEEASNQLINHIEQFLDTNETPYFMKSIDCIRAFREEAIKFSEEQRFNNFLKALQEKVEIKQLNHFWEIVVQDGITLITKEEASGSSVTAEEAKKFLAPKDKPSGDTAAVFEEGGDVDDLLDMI
T8 sequence (P12956 2-609 partner limits assumed): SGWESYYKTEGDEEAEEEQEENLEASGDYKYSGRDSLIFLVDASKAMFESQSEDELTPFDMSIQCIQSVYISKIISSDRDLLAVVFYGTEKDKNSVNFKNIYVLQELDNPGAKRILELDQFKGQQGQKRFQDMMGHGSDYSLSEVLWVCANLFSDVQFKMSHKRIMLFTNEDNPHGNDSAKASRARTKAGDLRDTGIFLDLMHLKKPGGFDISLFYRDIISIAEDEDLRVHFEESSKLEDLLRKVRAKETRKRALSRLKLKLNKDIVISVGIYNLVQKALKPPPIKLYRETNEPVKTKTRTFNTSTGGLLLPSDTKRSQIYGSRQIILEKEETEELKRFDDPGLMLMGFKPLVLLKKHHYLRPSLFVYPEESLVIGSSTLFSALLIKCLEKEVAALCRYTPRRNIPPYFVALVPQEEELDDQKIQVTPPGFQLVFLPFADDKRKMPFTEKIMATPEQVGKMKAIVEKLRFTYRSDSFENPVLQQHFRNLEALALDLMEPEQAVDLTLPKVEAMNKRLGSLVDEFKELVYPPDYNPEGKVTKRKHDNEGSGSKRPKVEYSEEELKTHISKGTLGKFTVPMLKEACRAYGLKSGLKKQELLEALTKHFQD
Outline: as §1

[9] = target: T9, P18206 (Homo sapiens, UniProt P18206)
T9 construct: Probe-modified proteins from the soluble fraction were conjugated to a desthiobiotin-azide tag; endogenous in cells; host or cells: DM93 (SILAC)
Outline: as §1

[10] = target: T10, Q16836 (Homo sapiens, UniProt Q16836)
T10 construct: performing SuTEx compound screening directly in cells; endogenous in cells; host or cells: DM93 cells (SILAC), soluble fraction
T10 sequence (Q16836 13-314): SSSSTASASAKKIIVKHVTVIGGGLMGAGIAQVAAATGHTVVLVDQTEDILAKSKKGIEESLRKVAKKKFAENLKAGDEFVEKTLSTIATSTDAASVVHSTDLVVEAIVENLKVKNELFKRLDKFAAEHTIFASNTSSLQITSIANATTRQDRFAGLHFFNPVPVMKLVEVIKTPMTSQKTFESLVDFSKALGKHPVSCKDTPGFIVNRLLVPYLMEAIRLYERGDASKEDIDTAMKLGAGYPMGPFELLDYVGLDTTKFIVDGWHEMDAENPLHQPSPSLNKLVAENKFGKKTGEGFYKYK
Outline: as §1

[11] = target: T11, Q9HCE5 (Homo sapiens, UniProt Q9HCE5)
T11 construct: endogenous in cells; host or cells: DM93 cells (SILAC), treated live; soluble proteome analysed
Outline: as §1

[12] = target: T12, P20839 (Homo sapiens, UniProt P20839)
T12 construct: endogenous in cells; host or cells: DM93 (SILAC)
T12 sequence (P20839 2-514 limits assumed): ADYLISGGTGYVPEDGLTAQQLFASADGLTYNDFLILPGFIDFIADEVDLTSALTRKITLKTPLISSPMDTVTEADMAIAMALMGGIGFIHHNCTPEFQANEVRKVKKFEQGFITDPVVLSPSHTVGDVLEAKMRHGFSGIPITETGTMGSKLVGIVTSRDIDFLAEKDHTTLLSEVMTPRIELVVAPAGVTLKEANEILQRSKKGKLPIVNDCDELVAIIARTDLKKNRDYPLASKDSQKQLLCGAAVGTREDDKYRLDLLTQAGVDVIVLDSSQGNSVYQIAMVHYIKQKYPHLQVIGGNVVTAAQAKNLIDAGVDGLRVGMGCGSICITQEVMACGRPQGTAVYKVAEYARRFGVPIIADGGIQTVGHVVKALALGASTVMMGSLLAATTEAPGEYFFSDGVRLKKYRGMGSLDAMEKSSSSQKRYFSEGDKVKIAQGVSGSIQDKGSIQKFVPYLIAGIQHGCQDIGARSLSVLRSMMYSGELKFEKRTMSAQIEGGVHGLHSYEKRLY
Outline: as §1

[13] = target: T13, P09874 (Homo sapiens, UniProt P09874)
T13 construct: endogenous in cells; host or cells: DM93 cells (SILAC)
T13 sequence (P09874 whole entry): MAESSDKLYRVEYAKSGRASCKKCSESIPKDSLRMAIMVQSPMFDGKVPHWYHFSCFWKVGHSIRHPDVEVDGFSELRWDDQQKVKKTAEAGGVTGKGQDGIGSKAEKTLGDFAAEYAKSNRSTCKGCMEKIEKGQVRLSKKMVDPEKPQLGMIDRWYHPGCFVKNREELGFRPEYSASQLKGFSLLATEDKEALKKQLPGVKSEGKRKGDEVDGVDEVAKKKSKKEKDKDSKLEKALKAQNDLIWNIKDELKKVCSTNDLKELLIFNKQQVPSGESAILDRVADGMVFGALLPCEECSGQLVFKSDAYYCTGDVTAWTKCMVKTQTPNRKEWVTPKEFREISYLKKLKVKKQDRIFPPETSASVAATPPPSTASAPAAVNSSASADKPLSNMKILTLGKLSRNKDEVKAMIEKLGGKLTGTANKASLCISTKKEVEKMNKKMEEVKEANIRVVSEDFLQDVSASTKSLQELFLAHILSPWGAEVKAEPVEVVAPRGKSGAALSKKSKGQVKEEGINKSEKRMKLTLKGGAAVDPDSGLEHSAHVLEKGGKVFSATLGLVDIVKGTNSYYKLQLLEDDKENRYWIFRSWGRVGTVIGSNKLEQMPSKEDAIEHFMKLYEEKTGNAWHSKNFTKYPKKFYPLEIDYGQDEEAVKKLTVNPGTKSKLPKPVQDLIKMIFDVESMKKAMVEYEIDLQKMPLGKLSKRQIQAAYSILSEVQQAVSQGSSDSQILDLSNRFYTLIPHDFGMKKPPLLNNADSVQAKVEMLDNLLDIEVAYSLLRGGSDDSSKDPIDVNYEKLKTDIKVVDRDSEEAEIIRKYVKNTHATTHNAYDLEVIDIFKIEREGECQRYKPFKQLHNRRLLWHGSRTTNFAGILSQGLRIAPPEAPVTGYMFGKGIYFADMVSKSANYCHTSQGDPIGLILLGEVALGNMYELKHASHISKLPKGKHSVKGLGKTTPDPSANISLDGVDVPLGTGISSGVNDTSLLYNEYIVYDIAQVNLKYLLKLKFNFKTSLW
Outline: as §1

[14] = target: T14, P13674 (Homo sapiens, UniProt P13674)
T14 construct: endogenous in cells; host or cells: DM93 cells (SILAC)
Outline: as §1

[15] = target: T15, P62277 (Homo sapiens, UniProt P62277)
T15 construct: performing SuTEx compound screening directly in cells; endogenous in cells; host or cells: DM93 cells (SILAC)
Outline: as §1

[16] = target: T16, P68371 (Homo sapiens, UniProt P68371)
T16 construct: performing SuTEx compound screening directly in cells; endogenous in cells; host or cells: DM93 cells (SILAC)
Outline: as §1

[17] = target: T17, Q9BUT1 (Homo sapiens, UniProt Q9BUT1)
T17 construct: endogenous in cells; host or cells: DM93 cells (SILAC), treated live; soluble proteome analysed
T17 sequence (Q9BUT1 whole entry): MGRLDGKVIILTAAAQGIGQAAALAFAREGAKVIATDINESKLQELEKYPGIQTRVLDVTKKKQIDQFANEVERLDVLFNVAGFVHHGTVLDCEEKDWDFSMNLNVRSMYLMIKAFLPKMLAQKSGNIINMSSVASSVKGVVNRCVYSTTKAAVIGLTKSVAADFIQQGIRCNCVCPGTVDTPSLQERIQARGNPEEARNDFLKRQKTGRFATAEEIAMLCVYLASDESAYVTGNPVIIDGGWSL
Outline: as §1

[18] = target: Q9H009 (Homo sapiens, UniProt Q9H009)
Outline: as §1

Q: How did the “liganded tyrosine site 52” value [1] turn out when `O=C(NC1CCCCC1)c1ccc(S(=O)(=O)n2cncn2)cc1` [HHS-0301, 4-((1H-1,2,4-triazol-1-yl)sulfonyl)-N-cyclohexylbenzamide] was run?
A: HHS0301.Y (tyrosine sites that showed >80% reductions (SR >5) in probe labeling in cells treated with compounds (liganded sites))

Q: And the “liganded tyrosine site 154” value [2]?
A: HHS0301.Y|HHS0701.Y (tyrosine sites that showed >80% reductions (SR >5) in probe labeling in cells treated with compounds (liganded sites))

Q: And the “liganded tyrosine site 154” value [3]?
A: HHS0301.Y|HHS0401.Y (tyrosine sites that showed >80% reductions (SR >5) in probe labeling in cells treated with compounds (liganded sites))

Q: And the “liganded tyrosine site 359” value [4]?
A: HHS0301.Y (tyrosine sites that showed >80% reductions (SR >5) in probe labeling in cells treated with compounds (liganded sites))

Q: Which “liganded tyrosine site 343” value [5] does the source give for `O=C(c1ccc(S(=O)(=O)n2cncn2)cc1)N1CCC(c2ccccc2)CC1` [HHS-0701, (4-((1H-1,2,4-triazol-1-yl)sulfonyl)phenyl)(4-phenylpiperidin-1-yl)methanone] here?
A: HHS0701.Y (tyrosine sites that showed >80% reductions (SR >5) in probe labeling in cells treated with compounds (liganded sites))

Q: And the “liganded tyrosine site 392” value [6]?
A: HHS0701.Y (tyrosine sites that showed >80% reductions (SR >5) in probe labeling in cells treated with compounds (liganded sites))

Q: What about the “liganded tyrosine site 343” value [7] of the same compound?
A: HHS0701.Y (tyrosine sites that showed >80% reductions (SR >5) in probe labeling in cells treated with compounds (liganded sites))

Q: What does the source list for `O=C(NCC1CC1)c1ccc(S(=O)(=O)n2cncn2)cc1` [HHS-0201, 4-((1H-1,2,4-triazol-1-yl)sulfonyl)-N-(cyclopropylmethyl)benzamide]?
A: liganded tyrosine site 295 [8]: HHS0201.Y (tyrosine sites that showed >80% reductions (SR >5) in probe labeling in cells treated with compounds (liganded sites)); liganded tyrosine site 100 [9]: HHS0201.Y|HHS0301.Y (tyrosine sites that showed >80% reductions (SR >5) in probe labeling in cells treated with compounds (liganded sites)); liganded tyrosine site 264 [10]: HHS0201.Y|HHS0401.Y|HHS0701.Y (tyrosine sites that showed >80% reductions (SR >5) in probe labeling in cells treated with compounds (liganded sites)); liganded tyrosine site 169 [11]: HHS0201.Y|HHS0301.Y (tyrosine sites that showed >80% reductions (SR >5) in probe labeling in cells treated with compounds (liganded sites))

Q: With `O=C(NCc1ccccc1)c1ccc(S(=O)(=O)n2cncn2)cc1` [HHS-0401, 4-((1H-1,2,4-triazol-1-yl)sulfonyl)-N-benzylbenzamide] as the compound, how does the “liganded tyrosine site 233” value [12] read?
A: HHS0401.Y (tyrosine sites that showed >80% reductions (SR >5) in probe labeling in cells treated with compounds (liganded sites))

Q: With `O=C(NC1CC1)c1ccc(S(=O)(=O)n2cncn2)cc1` [HHS-0101, 4-((1H-1,2,4-triazol-1-yl)sulfonyl)-N-cyclopropylbenzamide] as the compound, how does the “liganded tyrosine site 645” value [13] read?
A: HHS0101.Y (tyrosine sites that showed >80% reductions (SR >5) in probe labeling in cells treated with compounds (liganded sites))

Q: And the “liganded tyrosine site 250” value [14]?
A: HHS0101.Y (tyrosine sites that showed >80% reductions (SR >5) in probe labeling in cells treated with compounds (liganded sites))

Q: What about the “liganded tyrosine site 38” value [15] of the same compound?
A: HHS0101.Y (tyrosine sites that showed >80% reductions (SR >5) in probe labeling in cells treated with compounds (liganded sites))

Q: What about the “liganded tyrosine site 50” value [16] of the same compound?
A: HHS0101.Y (tyrosine sites that showed >80% reductions (SR >5) in probe labeling in cells treated with compounds (liganded sites))

Q: And the “liganded tyrosine site 49” value [17]?
A: HHS0101.Y (tyrosine sites that showed >80% reductions (SR >5) in probe labeling in cells treated with compounds (liganded sites))

Q: And the “liganded tyrosine site 112” value [18]?
A: HHS0101.Y|HHS0201.Y|HHS0301.Y|HHS0401.Y|HHS0701.Y (tyrosine sites that showed >80% reductions (SR >5) in probe labeling in cells treated with compounds (liganded sites))
